Assay results: US20100184644A1, “MUCOSAL REPAIR BY TFF DIMER PEPTIDES” (priority 2001, published 2010)
No end group written: not given here.

How the values were obtained:
[1] = tested on: mucin I (crude mucin, type II from porcine stomach); assay: Oscillatory rheometer measurement of mucin solution and mucin/TFF3 dimer gel-like material; conditions: for Elastic modules G′ / Viscous modulus G″: 2 ml 10% (w/v) mucin I + 10 mg TFF3 dimer in 0.4 ml water, 30 min, 20° C.
Description: FIG. 3. Oscillatory measurement of mucin solution (a) and mucin/TFF3 dimer peptide gel-like material (b). 2 ml of 10% (w/v) mucin I dissolved in 0.05% (w/v) sodiumazide was added 0.4 ml of water (a) or 0.4 ml of water containing 10 mg TFF3 dimer peptide (b). After 30 min at 20° C. a sinosoidally varying stress was applied and the strain response was detected at different frequencies. The complex viscosity (η*) ? the elastic modulus (G′) ? and the viscous modulus (G″) ? was calculated and plotted as a function of different frequencies.
(§1) Rheological measurements. Rheological properties were measured by the use of a rotational Reologica Rheometer (Reologica Instriments AB, Lund, Sweden). The instrument is equipped with a stainless steel C40 4 cone-plate (40 mm diameter plate with an angle of 4 degree) requiring a sample volume of at least 1.2 ml. The instrument was operated using instrument standard software (Version 3.6) allowing several different types of measurements. In the present study we have used the measuring programs: Constant Rate (viscosity and stress as a function of shear rate), Oscillation (complex viscosity, elastic modulus and viscous modulus at different frequencies) and Oscillation Stress Sweep (to identify the stress range inside which the measurement results are linear i.e. independent of the applied stress).
In order to characterise the mucin/TFF dimer peptide gel-like structure, the technique of oscillatory measurement in which the gel-like material are subjected to a sinusoidaily varying stress is applied and the strain response is measured. Before this measurement is carried out an oscillation stress sweep programme is used to define the so-called linear viscoelastic region. Inside this region no change of the mucin/TFF dimer peptide structure occurs and the relation between the applied stress and the measured quantities is linear.
This type of experiments allow the estimation of several rheological parameters as a function of frequency: complex viscosity η*, elastic modulus G′ and viscous modulus G″ (for detailed rheological theory see Barnes, H. A. (1989) An introduction to rheology. Elsevier and Ferguson, J. and Kemblowski, Z. (1991) Applied fluid rheology. Elsevier)

[2] = tested on: mucin I (crude mucin, type II from porcine stomach); assay: Viscosity versus shear rate (constant rate rheometer programme); conditions: 2 ml 10% (w/v) mucin I + 7.05 mg TFF3 dimer; 30 min, 20° C.; FIG. 4
Description: FIG. 4. Viscosity versus shear rate of TFF3 dimer peptides. 2 ml 10% (w/v) mucin I dissolved in 0.05% sodiumazide was added 7.05 mg TFF3 dimer dissolved in water. After 30 min at 20° C. the viscosity was measured as function of shear rate using the software programme: “constant rate”. ? mucin I alone; Δ—Δ: mucin I+TFF3 dimer.
as §1

[3] = tested on: Mitomycin C induced colitis; assay: Mitomycin C induced colitis model, luminal TFF3; type: in vivo, rat
Excerpt: (§2) Methods: 32 female wistar rats weighing 200 g were used in the study. The effect of luminal TFF3 was investigated in two rat models of colitis—the Mitomycin C induced colitis model (Keshavarzian A. et al. J. Lab Clin. Med. 1992; 120:778-91) and the dextran induced colitis model (Mottet N K. Gastroenterology 1972; 62:1269-71). TFF3 was administrated directly into the proximal part of the colon by means of a soft polyethylene tube which in anaesthezised rats at a laparotomy, was inserted into the colonic lumen, secured by 6-0 silk sutures and lead subcutaneously to the neck region of the rat.
Mitomycin C colitis: In 16 rats colitis was induced by means of Mitomycin C, 3.75 mg/kg. Eight of the rats were given TFF3, 5 mg/kg in 0.5 ml H2O, two times each day from day 4-7 into the colonic tube. The 8 controls received NaCl. The rats were sacrificed by means of an overdose of barbiturate 8 days after mitomycin administration. The colon was fixed by intraluminal injection of 10% formalin, and after 10 minutes opened and suspended on a polyethylene plate. […] The colonic specimens were investigated by means of a Wild Photomacroscope—the extent of disease and the number of ulcerations were quantitated. […] The severety of colitis was scored by means of a histologic colitis score (FIG. 5, Williams K L. et al. Gastroenterology 2001; 120:925-37).

dextran induced colitis = assay: Dextran induced colitis model, luminal TFF3; type: in vivo, rat
Excerpt: as §2
Dextran colitis: In 16 rats colitis was induced by means of dextran sulphate sodium 5% administered in the drinking water. Eight of the rats were given TFF3, 5 mg/kg in 0.5 ml H2O into the colonic tube, two times each day from the day before the initiation of dextran supplementation till day 9, where the rats were sacrificed. The 8 controls recieved NaCl. The rats were sacrificed by means of an overdose of barbiturate. The colon was fixed by intraluminal injection of 10% formalin, and after 10 minutes opened and suspended on a polyethylene plate. After further 24 hours fixation the specimens were flushed with water and surface stained with 0.3% Alcian Green 3BX. The colonic specimens were investigated by means of a Wild Photomacroscope—the extent of disease and the number of ulcerations were quantitated. For histologic analysis specimens were taken out (in a blinded way) from the proximal, middle and distal colon and embedded in paraffin. Histologic sections of 5 μm were stained with PAS-hematoxylin-aurentia. The severety of colitis was scored by means of a histologic colitis score (Williams K L. et al. Gastroenterology 2001; 120:925-37).

| Substance | Elastic modules G′ ([1]; 0.01 Hz) [Pa] | Viscous modulus G″ ([1]; 0.01 Hz) [Pa] | Elastic modules G′ ([1]; 0.1 Hz) [Pa] | Viscous modulus G″ ([1]; 0.1 Hz) [Pa] | Elastic modules G′ ([1]; 1 Hz) [Pa] | Viscous modulus G″ ([1]; 1 Hz) [Pa] | Elastic modulus and viscous modulus compared to the mucin solution ([1]; mucin/TFF3 dimer gel-like structure vs mucin solution) | Effect on the viscosity of the mucin I solution [2] | Overall colitis score (histologic) ([3]; rat, TFF3 5 mg/kg intraluminal twice daily day 4-7, control (NaCl) 10.8, p<0.01) | Severity of mitomycin induced colitis ([3]; rats, intraluminal treatment) | Overall colitis score (histologic) (dextran induced colitis; rat, TFF3 5 mg/kg intraluminal twice daily till day 9, control (NaCl) 3.18, p<0.05) | Histologic colitis score in the midsegment of the colon (dextran induced colitis; rat, TFF3 5 mg/kg intraluminal twice daily, control 1.8, p<0.05) | Severity of dextran induced colitis (dextran induced colitis; rats, intraluminal treatment) |
| --- | --- | --- | --- | --- | --- | --- | --- | --- | --- | --- | --- | --- | --- |
| TFF3 dimer: dimer form of recombinant human TFF3; two TFF3 monomers linked by a disulfide bond between Cys57 of each monomer (EEYVGLSANQCAVPAKDRVDCGYPHVTPKECNNRGCCFDSRIPGVPWCFKPLQEAECTF; not fully specified (bridges); also: homodimer via disulfide between Cys57 of each monomer) | 19 | 18 | 52 | 37 | 86 | 54 | dramatically increased | significant effect |  |  |  |  |  |
| TFF3: trefoil factor 3 given intraluminally to rats; Example 2 does not state monomer or dimer form (EEYVGLSANQCAVPAKDRVDCGYPHVTPKECNNRGCCFDSRIPGVPWCFKPLQEAECTF; not fully specified (bridges); cysteine pairing not given here; UniProt Q07654 22-80, looked up) |  |  |  |  |  |  |  |  | 3.4 | reduces the severity | 1.1 | 0.4 | reduces the severity |
